In publication PMC12188165, “Engineering of the Thiamine Diphosphate‐Dependent JanthE for the Synthesis of Tertiary Alcohols” (Chemistry (Weinheim an Der Bergstrasse, Germany), 2025):
Read-outs that look alike come from different tables or passages of the source.

Tests used:
JanthE = target: T1, JanthE (Janthinobacterium sp. HH01, UniProt A0AAT8XUE4, K568S, form not given); test: initial-rate kinetics, formation of product […]; assay type: biochemical; conditions: 1 mM Mg2+, 0.05 mM ThDP, 200 mM NaCl, 100 mM sodium phosphate pH 8, read-out: K567S
T1 construct: purified enzyme; expression and tag details only in supplement

purified protein [1] = substrate: CC(=O)COc1ccccc1; test: purified protein; assay type: biochemical, Janthinobacterium sp. HH01; conditions: 50 mM 2-oxobutanoate co-substrate, 1 mM Mg2+, 0.05 mM ThDP, 200 mM NaCl, 100 mM sodium phosphate pH 8
purified protein [2] = substrate: CCC(=O)C(=O)O; test: purified protein; assay type: biochemical, Janthinobacterium sp. HH01; conditions: 20 mM phenoxy-2-propanone co-substrate, 1 mM Mg2+, 0.05 mM ThDP, 200 mM NaCl, 100 mM sodium phosphate pH 8

T1 sequence (A0AAT8XUE4 entry or part of it K568S, form open): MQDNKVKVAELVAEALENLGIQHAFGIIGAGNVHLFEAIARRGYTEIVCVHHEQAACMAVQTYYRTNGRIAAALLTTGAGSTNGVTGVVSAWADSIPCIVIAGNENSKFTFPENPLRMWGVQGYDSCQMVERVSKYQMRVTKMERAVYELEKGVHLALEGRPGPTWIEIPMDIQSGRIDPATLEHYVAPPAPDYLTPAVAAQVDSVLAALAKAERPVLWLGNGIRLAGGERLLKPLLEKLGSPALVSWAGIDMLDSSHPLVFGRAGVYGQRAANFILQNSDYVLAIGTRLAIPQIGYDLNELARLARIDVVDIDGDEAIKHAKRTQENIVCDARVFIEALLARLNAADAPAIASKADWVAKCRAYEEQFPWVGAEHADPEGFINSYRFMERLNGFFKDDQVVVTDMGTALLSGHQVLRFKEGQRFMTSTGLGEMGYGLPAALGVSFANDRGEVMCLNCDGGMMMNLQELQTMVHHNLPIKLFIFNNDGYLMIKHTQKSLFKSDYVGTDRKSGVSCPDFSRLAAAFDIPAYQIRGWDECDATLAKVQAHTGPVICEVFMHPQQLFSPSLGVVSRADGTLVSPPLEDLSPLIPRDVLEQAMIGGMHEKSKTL

CCC(=O)C(=O)O [compound 2, 2-oxobutanoate]
Km (JanthE; 20 mM phenoxy-2-propanone co-substrate): 0.74 ± 0.31 mM

CC(=O)COc1ccccc1 [compound 6, phenoxy-2-propanone]
Km (JanthE; 50 mM 2-oxobutanoate co-substrate): 31.8 ± 6 mM

B1: JanthE (Janthinobacterium sp. HH01) (protein)
chain: MQDNKVKVAELVAEALENLGIQHAFGIIGAGNVHLFEAIARRGYTEIVCVHHEQAACMAVQTYYRTNGRIAAALLTTGAGSTNGVTGVVSAWADSIPCIVIAGNENSKFTFPENPLRMWGVQGYDSCQMVERVSKYQMRVTKMERAVYELEKGVHLALEGRPGPTWIEIPMDIQSGRIDPATLEHYVAPPAPDYLTPAVAAQVDSVLAALAKAERPVLWLGNGIRLAGGERLLKPLLEKLGSPALVSWAGIDMLDSSHPLVFGRAGVYGQRAANFILQNSDYVLAIGTRLAIPQIGYDLNELARLARIDVVDIDGDEAIKHAKRTQENIVCDARVFIEALLARLNAADAPAIASKADWVAKCRAYEEQFPWVGAEHADPEGFINSYRFMERLNGFFKDDQVVVTDMGTALLSGHQVLRFKEGQRFMTSTGLGEMGYGLPAALGVSFANDRGEVMCLNCDGGMMMNLQELQTMVHHNLPIKLFIFNNDGYLMIKHTQKSLFKSDYVGTDRKSGVSCPDFSRLAAAFDIPAYQIRGWDECDATLAKVQAHTGPVICEVFMHPQQLFSPKLGVVSRADGTLVSPPLEDLSPLIPRDVLEQAMIGGMHEKSKTL
notes: purified enzyme; expression and tag details only in supplement
Km (purified protein [1]): 24.6 ± 3.8 mM
Km (purified protein [2]): 0.92 ± 0.26 mM
